Measurements reported in patent publication US8513271B2, “Pyrimidine compounds as delta opioid receptor modulators” (Janssen Pharmaceutica, NV, priority 2009, dated 2013).
“And” between values parts separate entries of the source, which are not always exact repeats. Identical values can stand only once. Like-named read-outs stand apart in the source and are kept apart here.

Columns and labels:
delta opioid receptor [1] = molecular target: T1, delta opioid receptor (Rattus norvegicus, UniProt P33533); assay: Rat brain delta opioid receptor binding assay; settings: rat forebrain, [3H]naltrindole ligand
T1 construct: the forebrains were homogenized in Tris buffer in a Teflon®-glass homogenizer; from tissue; host or cells: forebrain of male Wistar rats, particulate (membrane) preparation
T1 sequence (P33533 whole entry): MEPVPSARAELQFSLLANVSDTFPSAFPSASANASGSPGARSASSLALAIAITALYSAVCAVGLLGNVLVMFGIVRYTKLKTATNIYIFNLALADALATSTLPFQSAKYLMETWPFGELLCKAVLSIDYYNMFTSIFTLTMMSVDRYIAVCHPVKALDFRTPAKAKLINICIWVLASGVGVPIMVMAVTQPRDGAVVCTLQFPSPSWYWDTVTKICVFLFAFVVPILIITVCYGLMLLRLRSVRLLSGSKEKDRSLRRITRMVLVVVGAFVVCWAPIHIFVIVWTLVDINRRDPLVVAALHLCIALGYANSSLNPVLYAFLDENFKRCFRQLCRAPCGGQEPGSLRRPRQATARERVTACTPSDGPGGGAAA

[2] = tested on: CFA-induced paw radiant heat hypersensitivity; assay: CFA-induced paw radiant heat hypersensitivity; format: in vivo, rat; settings: for maximum % reversal: time not printed (last time point 100 min)
[3] = molecular target: hMOR (mu opioid receptor) (Homo sapiens, UniProt P35372); assay: [35S]GTPγS binding assays in CHO-hMOR cell membranes (mu opioid functional assay); format: biochemical; settings: for inhibition at 10 µM: read-out: GTPγS μ-opioid receptor % Inh @10 μM
hMOR (mu opioid receptor), sequence (P35372 whole entry, looked up): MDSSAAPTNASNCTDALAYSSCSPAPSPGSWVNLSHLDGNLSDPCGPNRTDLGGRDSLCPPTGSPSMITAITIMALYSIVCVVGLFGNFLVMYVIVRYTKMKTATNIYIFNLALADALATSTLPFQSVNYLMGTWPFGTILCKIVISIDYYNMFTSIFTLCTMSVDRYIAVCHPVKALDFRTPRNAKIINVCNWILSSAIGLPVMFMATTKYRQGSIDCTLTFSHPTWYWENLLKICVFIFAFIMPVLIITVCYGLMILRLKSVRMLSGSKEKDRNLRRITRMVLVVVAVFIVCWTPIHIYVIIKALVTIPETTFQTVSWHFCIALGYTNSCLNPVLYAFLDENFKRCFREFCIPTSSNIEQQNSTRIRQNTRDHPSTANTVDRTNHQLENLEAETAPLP

delta opioid receptor [4] = molecular target: T2, delta opioid receptor (Mus musculus, UniProt P32300); assay: [35S]GTPγS binding assay in NG108-15 cell membranes (delta opioid functional assay), 200 nM screen; format: biochemical; settings: for EC50: GTPγS δ-opioid receptor EC50 (μM); for EC50 / GTPγS δ-opioid receptor Rel Efficacy / GTPγS δ-RelEfficacy @200 nM: NG108-15 cell membranes; for EC50 / GTPγS δ-RelEfficacy @200 nM: averages if tested more than once; for GTPγS δ-opioid receptor Rel Efficacy: relative efficacy from dose response; for GTPγS δ-RelEfficacy @200 nM: 200 nM test compound, relative to calculated max of SNC80 dose response curve
T2 construct: NG108-15 cell membranes were purchased from Applied Cell Sciences (Rockville, Md.); host or cells: NG108-15 cell membranes
T2 sequence (P32300 whole entry): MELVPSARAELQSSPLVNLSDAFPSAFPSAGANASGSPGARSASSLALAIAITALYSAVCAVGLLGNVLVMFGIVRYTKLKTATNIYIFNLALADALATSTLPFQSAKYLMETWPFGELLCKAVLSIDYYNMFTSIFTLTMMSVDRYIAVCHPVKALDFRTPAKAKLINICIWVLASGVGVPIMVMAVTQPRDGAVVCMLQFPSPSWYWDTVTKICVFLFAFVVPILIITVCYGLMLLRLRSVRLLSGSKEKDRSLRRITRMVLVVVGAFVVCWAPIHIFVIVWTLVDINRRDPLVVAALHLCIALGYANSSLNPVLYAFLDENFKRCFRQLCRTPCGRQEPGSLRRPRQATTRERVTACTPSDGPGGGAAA

[5] = tested on: acetic acid-induced abdominal stretches; assay: Mouse graded abdominal irritant test (GrAIT); format: in vivo; settings: 10% Solutol, 30 min pretreatment
mu opioid receptor = molecular target: T3, mu opioid receptor (Rattus norvegicus, UniProt P33535); assay: Rat brain mu opioid receptor binding assay; settings: rat forebrain, [3H]DAMGO ligand
T3 construct: the forebrains were homogenized in Tris buffer in a Teflon®-glass homogenizer; from tissue; host or cells: forebrain of male Wistar rats, particulate (membrane) preparation
T3 sequence (P33535 whole entry): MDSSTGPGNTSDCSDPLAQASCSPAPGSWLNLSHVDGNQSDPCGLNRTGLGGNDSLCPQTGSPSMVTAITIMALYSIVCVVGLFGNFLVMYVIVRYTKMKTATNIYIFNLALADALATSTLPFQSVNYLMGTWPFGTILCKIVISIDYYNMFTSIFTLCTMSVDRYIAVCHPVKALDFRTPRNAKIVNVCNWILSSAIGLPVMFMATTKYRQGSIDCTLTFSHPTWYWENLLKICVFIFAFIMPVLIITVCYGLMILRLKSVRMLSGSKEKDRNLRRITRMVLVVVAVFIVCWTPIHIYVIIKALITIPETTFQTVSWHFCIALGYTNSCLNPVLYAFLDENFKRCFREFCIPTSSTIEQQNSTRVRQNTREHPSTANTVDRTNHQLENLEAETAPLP

delta opioid receptor [6] = molecular target: T2, delta opioid receptor; assay: NG108-15, 24-well delta opioid receptor binding assay
[7] = δ-binding (Naltrindole ligand) Ki
[8] = Rattus norvegicus, po, 1 h, read-out: maximum % reversal @ time (min), rat, 100 mg/kg p.o., 0.5% HPMC, @ 60 min
[9] = Rattus norvegicus, po, 3 h, read-out: maximum % reversal @ time (min), rat, 100 mg/kg p.o., 0.5% HPMC, @ 180 min, Algos (contract lab) study

SMILES	Ki (delta opioid receptor [1]; [7]) [nM]	inhibition at 10 µM [3] [%]	EC50 (delta opioid receptor [4]) [µM]	GTPγS δ-opioid receptor Rel Efficacy (delta opioid receptor [4])	# abdominal stretches (compound) ([5]; 30 mg/kg s.c.)	Ki (mu opioid receptor; μ-binding Ki) [nM]	Ki (mu opioid receptor; read-out: μ-binding Ki) [nM]	further results
COc1ccc(Oc2nc(-c3cccnc3)ncc2NC[C@@H]2CCCN2)cc1 [Cpd 8]	6.19	2.48	0.0681	0.848	18.9	42.8	–	inhibition in vivo at 100 mg/kg [2, 8]: 46.5%; inhibition in vivo at 100 mg/kg [2, 9]: 75.1%; maximum % reversal ([2]; rat, 30 mg/kg p.o., 0.5% HPMC): 49.0%; maximum % reversal ([2]; rat, 100 mg/kg p.o., 0.5% HPMC): 64.8%; inhibition at 10 µM (delta opioid receptor [4]; read-out: GTPγS δ-opioid receptor % Inh @10 μM): 23.6%
COc1ccc(Oc2nc(-c3cnc4ccccc4c3)ncc2NC[C@@H]2CCCN2)cc1 [Cpd 20]	4.93	–	–	–	19.8	–	146	–
COc1ccc(Oc2nc(-c3ccc(OC)nc3)ncc2NC[C@@H]2CCCN2)cc1 [Cpd 22]	0.909	–	–	–	18.6 and 16.0	–	1100	# abdominal stretches (compound) ([5]; 100 mg/kg s.c.): 17.4; # abdominal stretches (compound) ([5]; 300 mg/kg s.c.): 20.3
COc1ccc(Oc2nc(-c3cncnc3)ncc2NC[C@@H]2CCCN2)cc1 [Cpd 23]	–	–	–	–	16.7	–	214	Ki (delta opioid receptor [1]; read-out: δ-binding (Naltrindole ligand) Ki): 1.25 nM; ED50 ([2]; po, 2 h, rat, p.o., 0.5% HPMC, doses 10, 30, 100, 300 mg/kg, time point 120 min, read-out: ED50): 35.4 mg/kg
COc1ccc(Oc2nc(-c3cccnc3F)ncc2NC[C@@H]2CCCN2)cc1 [Cpd 24]	1	–	–	–	16.9	–	1060	–
COc1ccc(Oc2nc(-c3ccc(F)nc3)ncc2NC[C@@H]2CCCN2)cc1 [Cpd 25]	0.308	–	–	–	12.3	–	616	–
COc1ccc(Oc2nc(-c3cccnc3OC)ncc2NC[C@@H]2CCCN2)cc1 [Cpd 26]	8	–	–	–	16.7	–	4050	–
COc1ccc(Oc2nc(-c3cncc(C#N)c3)ncc2NC[C@@H]2CCCN2)cc1 [Cpd 69]	4.1	22.8	0.0085	1.004	–	196	–	Ki (delta opioid receptor [6]): 0.139 nM; inhibition in vivo at 100 mg/kg [2, 8]: 10.1%; inhibition in vivo at 100 mg/kg ([2]; Rattus norvegicus, po, 1 h, read-out: maximum % reversal @ time (min), rat, 100 mg/kg p.o., 0.5% HPMC, @ 60 min, Algos (contract lab) study): 55.7%; inhibition in vivo at 100 mg/kg [2, 9]: 65.4%; EC50 [3]: > 10000 nM
COc1ccc(Oc2nc(-c3cncc(SC)c3)ncc2NC[C@@H]2CCCN2)cc1 [Cpd 107, [4-(4-Methoxy-phenoxy)-2-(5-methylsulfanyl-pyridin-3-yl)-pyrimidin-5-yl]-pyrrolidin-2-(S)-ylmethyl-amine]	1	4.05	0.0213	0.957	–	39	–	ED50 ([2]; Rattus norvegicus, po, 2 h): 32 mg/kg; inhibition in vivo at 100 mg/kg ([2]; Rattus norvegicus, po, 2 h, read-out: maximum % reversal @ time (min), rat, 100 mg/kg p.o., 0.5% HPMC, @ 120 min): 52.8%; EC50 [3]: 5100 nM; GTPγS δ-RelEfficacy @200 nM (delta opioid receptor [4]): 1.046
COc1ccc(Oc2nc(-c3cccnc3)ncc2N2CCCNCC2)cc1 [Cpd 336]	–	17.1	0.0502	1.009	–	–	–	inhibition in vivo at 30 mg/kg ([2]; Rattus norvegicus, po, 0.5 h, read-out: maximum % reversal @ time (min), rat, 30 mg/kg p.o., 0.5% HPMC, @ 30 min): 23.4%; GTPγS δ-RelEfficacy @200 nM (delta opioid receptor [4]): 0.830
